Laboratory results reported in patent US20090099094A1, “Use of Somatostatin Agonists to Treat Medullary Thyroid Carcinoma” (priority 2007, published 2009).
Square brackets hold non-standard residues; d marks the D form. Peptide text beside a SMILES is read from it. Tic = O=C(O)[C@@H]1Cc2ccccc2CN1; Abu = CC[C@H](N)C(=O)O

Assays:
[1] = target: SSTR2 (Homo sapiens, UniProt P30874); assay: SSTR receptor binding affinity (Ki), SSTR2; details: read-out: SSTR Specificity Ki SSTR2
[2] = target: SSTR1 (Homo sapiens, UniProt P30872); assay: SSTR receptor binding affinity (Ki), SSTR1; details: read-out: SSTR Specificity Ki SSTR1
[3] = target: SSTR3 (Homo sapiens, UniProt P32745); assay: SSTR receptor binding affinity (Ki), SSTR3; details: read-out: SSTR Specificity Ki SSTR3
[4] = tested on: medullary thyroid carcinoma primary cultures; assay: Calcitonin secretion by MTC primary cultures (IRMA); format: cell-based, human; details: 10^−8 M, six hours
Procedure: Primary cultured cells from 18 selected MTC samples were incubated in ninety six well plates for six hours with each SSTR agonist at 10^−8 M. Control cells were treated with vehicle solution. Calcitonin levels in the conditioned medium were measured by immunoradiometric assay (IRMA) among eight replicates in the conditioned medium from treated and untreated (control) primary cultured cells. […] Data are expressed as the mean±SE percent hormone secretion inhibition vs. untreated control cells. *P<0.05 and **P<0.01 vs. control.
(§1) Tissue samples were surgically removed in accordance with the guidelines of the local comnmittees on human research. Thyroid tissue samples were obtained under sterile conditions and immediately minced in RPMI 1640 tissue culture medium. Tissues were incubated with 0.25% trypsin overnight at 4° C. and then dissociated using 0.35% collagenase (Sigma, Milano, ITALY) and 1% trypsin at 37° C. for sixty minutes. Cell suspensions were filtered through double layers of gaus(e and washed twice with serum-free F-12 Ham's Nutrient Modified Medium (F-12; Euroclone Ltd, Wetherby, UNITED KINGDOM). Tumor cells were re-suspended in F-12 with 10% fetal bovine serum and antibiotics, seeded in ninety-six well culture plates (˜2×10^4 cells/well) and incubated at 37° C. in a humidified atmosphere of 5% CO2 and 95% air according to known procedures (Zatelli, M. C. et al., Endocrinology, 2005, 146:2692-8). Approximately twenty-four hours later, the prepared cells were treated with the selected somatostatin agonist and were monitored for hormone secretion and overall viability. Informed consent of the patients was obtained for disclosing clinical investigation and performing the in vitro study.
Calcitonin levels were measured in a conditioned medium from treated and untreated primary cultured cells with the calcitonin-U.S.-IRMA® kit (Biosource Europe, Nivelles, BELGIUM) after a six hour treatment with […] of the selected somatostatin analogs. The intra- and inter-assay variation coefficients were 1.9-2.7% and 1.9-3.3%, respectively. The detection limit was 0.8 pg/ml. Hormone assays were performed in duplicate of conditioned medium from treated cells. Results were obtained by determining the mean value among eight replicates.
In order to investigate the effects of somatostatin analogs on hormone secretion, calcitonin and CgA levels were measured in conditioned media collected from primary cultures derived from the selected eighteen medullary thyroid carcinoma treated with or without each somatostatin analog at 10^−8M for six hours.
According to this criterion, […] as “responders” (group A: primary cultures #3, #5, #6, #7, #11, #12, #13, #14, #15, #16) and nine as “non responders” (group B: primary cultures #1, #2, #4, #8, #9, #10, #17, #18).

[5] = target: SSTR5 (Homo sapiens, UniProt P35346); assay: SSTR receptor binding affinity (Ki), SSTR5; details: read-out: SSTR Specificity Ki SSTR5
[6] = tested on: medullary thyroid carcinoma primary cultures; assay: Cell viability of MTC primary cultures (MTT); format: cell-based, human; details: 10^−8 M, forty-eight hours; for cell viability, change vs. control (signed, negative = reduced): group B (lanreotide non-responsive) mean
Procedure: Primary cultured cells from 18 selected MTC samples were incubated in ninety six well plates for forty eight hours with each SSTR agonist at 10^−8 M. Control cells were treated with vehicle solution. Cell viability was measured by a colorimetric method among eight replicates from treated and untreated (control) primary cultured cells. […] Data are expressed as the mean±SE percent cell viability reduction vs. untreated control cells. *P<0.05, and **P<0.01 vs. control.
as §1
The effects of the tested somatostatin analogs on medullary thyroid carcinoma primary culture cell viability were assessed with a Cell Proliferation Kit I MTT® (Roche Diagnostics GmbH, Mannheim, GERMANY) which employs a colorimetric method for determining the number of viable cells in proliferation assays. Primary cultured cells were plated in ninety-six multiwell plates (2×10^4 cells/well) and incubated for forty-eight hours in a medium supplemented with 10% fetal bovine serum in the presence or absence of each somatostatin analog at 10^−8M. Treatments were renewed after the first twenty-four hours of incubation.
In order to investigate the effects of somatostatin analogs on medullary thyroid carcinoma cell viability, an MTT assay was performed in primary cultures derived from the eighteen selected medullary thyroid carcinoma samples, treated with or without each somatostatin analog at […] for forty-eight hours. Percent cell viability reduction compared to a control in each primary culture under treatment with each somatostatin analog is reported in Table 6.

[7] = target: SSTR4 (Homo sapiens, UniProt P31391); assay: SSTR receptor binding affinity (Ki), SSTR4; details: read-out: SSTR Specificity Ki SSTR4
[8] = MTC primary culture #1 (non responder)
[9] = MTC primary culture #2 (non responder)
[10] = MTC primary culture #3 (responder)
[11] = MTC primary culture #4 (non responder)
[12] = MTC primary culture #5 (responder)
[13] = MTC primary culture #6 (responder)
[14] = MTC primary culture #7 (responder)
[15] = MTC primary culture #8 (non responder)
[16] = MTC primary culture #9 (non responder)
[17] = MTC primary culture #10 (non responder)
[18] = MTC primary culture #11 (responder)
[19] = MTC primary culture #12 (responder)
[20] = MTC primary culture #13 (responder)
[21] = MTC primary culture #14 (responder)
[22] = MTC primary culture #15 (responder)
[23] = MTC primary culture #16 (responder)
[24] = MTC primary culture #17 (non responder)
[25] = MTC primary culture #18 (non responder)
[26] = group A (lanreotide responsive) mean
[27] = group B (lanreotide non-responsive) mean

Sequence of SSTR5 (P35346 whole entry): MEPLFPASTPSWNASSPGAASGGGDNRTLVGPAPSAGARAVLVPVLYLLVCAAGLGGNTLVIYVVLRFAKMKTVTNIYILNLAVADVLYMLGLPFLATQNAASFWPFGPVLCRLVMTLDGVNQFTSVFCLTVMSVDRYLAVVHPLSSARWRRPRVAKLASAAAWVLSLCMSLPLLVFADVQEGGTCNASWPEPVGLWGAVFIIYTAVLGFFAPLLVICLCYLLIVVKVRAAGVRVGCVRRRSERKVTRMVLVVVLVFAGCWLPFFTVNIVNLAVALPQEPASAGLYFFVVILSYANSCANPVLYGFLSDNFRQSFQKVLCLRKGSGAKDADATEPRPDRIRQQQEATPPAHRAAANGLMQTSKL
Sequence of SSTR2 (P30874 whole entry): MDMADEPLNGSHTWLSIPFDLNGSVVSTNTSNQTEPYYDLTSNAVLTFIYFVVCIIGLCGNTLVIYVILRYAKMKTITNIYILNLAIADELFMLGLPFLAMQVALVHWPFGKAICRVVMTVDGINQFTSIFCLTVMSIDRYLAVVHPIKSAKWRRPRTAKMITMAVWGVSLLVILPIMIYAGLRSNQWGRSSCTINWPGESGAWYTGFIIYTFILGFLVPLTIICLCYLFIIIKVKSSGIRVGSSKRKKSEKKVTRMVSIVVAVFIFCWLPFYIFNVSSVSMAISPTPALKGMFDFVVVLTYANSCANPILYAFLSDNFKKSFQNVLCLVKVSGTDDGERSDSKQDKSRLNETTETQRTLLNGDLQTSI
Sequence of SSTR3 (P32745 whole entry): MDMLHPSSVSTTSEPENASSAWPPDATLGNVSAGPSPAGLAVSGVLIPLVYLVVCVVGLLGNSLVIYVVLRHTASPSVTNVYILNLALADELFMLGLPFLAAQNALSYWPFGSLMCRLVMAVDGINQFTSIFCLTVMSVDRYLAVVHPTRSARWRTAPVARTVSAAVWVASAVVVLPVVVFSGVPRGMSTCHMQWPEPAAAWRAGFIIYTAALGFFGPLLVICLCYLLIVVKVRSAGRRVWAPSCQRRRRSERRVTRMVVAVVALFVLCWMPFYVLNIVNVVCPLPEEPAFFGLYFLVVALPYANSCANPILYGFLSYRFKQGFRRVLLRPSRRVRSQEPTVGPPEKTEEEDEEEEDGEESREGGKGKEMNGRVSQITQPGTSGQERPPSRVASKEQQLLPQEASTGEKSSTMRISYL
Sequence of SSTR1 (P30872 whole entry): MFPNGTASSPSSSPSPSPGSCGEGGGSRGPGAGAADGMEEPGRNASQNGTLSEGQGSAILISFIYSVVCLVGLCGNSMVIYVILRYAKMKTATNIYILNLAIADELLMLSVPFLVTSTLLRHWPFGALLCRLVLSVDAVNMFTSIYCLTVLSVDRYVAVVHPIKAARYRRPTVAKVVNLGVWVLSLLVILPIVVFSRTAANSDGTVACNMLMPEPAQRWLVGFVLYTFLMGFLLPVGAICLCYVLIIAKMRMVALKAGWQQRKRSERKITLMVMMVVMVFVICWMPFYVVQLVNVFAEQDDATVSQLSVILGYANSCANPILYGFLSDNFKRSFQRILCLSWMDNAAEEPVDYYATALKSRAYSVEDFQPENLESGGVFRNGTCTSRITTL
Sequence of SSTR4 (P31391 whole entry): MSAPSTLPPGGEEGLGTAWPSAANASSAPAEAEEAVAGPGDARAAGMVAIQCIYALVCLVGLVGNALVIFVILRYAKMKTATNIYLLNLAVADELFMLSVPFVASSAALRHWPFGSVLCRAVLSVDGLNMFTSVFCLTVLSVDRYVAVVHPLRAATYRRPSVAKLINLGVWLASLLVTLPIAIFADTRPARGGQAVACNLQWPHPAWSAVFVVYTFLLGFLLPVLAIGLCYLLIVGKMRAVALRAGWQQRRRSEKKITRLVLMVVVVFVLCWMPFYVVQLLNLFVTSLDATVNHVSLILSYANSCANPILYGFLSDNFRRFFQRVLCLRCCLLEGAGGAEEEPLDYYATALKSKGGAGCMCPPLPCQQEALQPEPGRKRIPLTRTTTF

Structure (SMILES): CC[C@@H]1NC(=O)[C@H](CCCCN)NC(=O)[C@@H](Cc2c[nH]c3ccccc23)NC(=O)[C@H](Cc2ccc(O)cc2)NC(=O)[C@@H]2Cc3ccccc3CN2C(=O)[C@H](Cc2ccccc2)NC1=O [Cmpd #2, c[Tic-Tyr-D-Trp-Lys-Abu-Phe]] (cyclo([Tic]Y[dW]K[Abu]F))
- Ki [1]: 0.34 nM
- Ki [2]: 1000 nM
- Ki [3]: 412 nM
- % CT secretion inhibition vs. control [4, 8]: −6.1%
- % CT secretion inhibition vs. control [4, 9]: −4.3%
- % CT secretion inhibition vs. control [4, 10]: −36.0%
- % CT secretion inhibition vs. control [4, 11]: 8.9%
- % CT secretion inhibition vs. control [4, 12]: −8.6%
- % CT secretion inhibition vs. control [4, 13]: −5.7%
- % CT secretion inhibition vs. control [4, 14]: −51.3%
- % CT secretion inhibition vs. control [4, 15]: −2.6%
- % CT secretion inhibition vs. control [4, 16]: 6.7%
- % CT secretion inhibition vs. control [4, 17]: 11.6%
- % CT secretion inhibition vs. control [4, 18]: 10.3%
- % CT secretion inhibition vs. control [4, 19]: −12.4%
- % CT secretion inhibition vs. control [4, 20]: −48.6%
- % CT secretion inhibition vs. control [4, 21]: 1.6%
- % CT secretion inhibition vs. control [4, 22]: −22.9%
- % CT secretion inhibition vs. control [4, 23]: −31.7%
- % CT secretion inhibition vs. control [4, 24]: −2.6%
- % CT secretion inhibition vs. control [4, 25]: −1.5%
- calcitonin secretion, change vs. control (signed, negative = reduced) [4, 26]: −23%
- calcitonin secretion, change vs. control (signed, negative = reduced) [4, 27]: not reduced
- Ki [5]: 214 nM
- % cell viability reduction vs. control [6, 8]: −5.0%
- % cell viability reduction vs. control [6, 9]: −56.4%
- % cell viability reduction vs. control [6, 10]: −3.2%
- % cell viability reduction vs. control [6, 11]: −17.9%
- % cell viability reduction vs. control [6, 12]: −8.6%
- % cell viability reduction vs. control [6, 13]: 3.2%
- % cell viability reduction vs. control [6, 14]: 54.4%
- % cell viability reduction vs. control [6, 15]: −15.3%
- % cell viability reduction vs. control [6, 16]: −8.8%
- % cell viability reduction vs. control [6, 17]: 12.1%
- % cell viability reduction vs. control [6, 18]: −0.4%
- % cell viability reduction vs. control [6, 19]: 15.8%
- % cell viability reduction vs. control [6, 20]: −5.3%
- % cell viability reduction vs. control [6, 21]: 8.2%
- % cell viability reduction vs. control [6, 22]: 5.6%
- % cell viability reduction vs. control [6, 23]: −3.0%
- % cell viability reduction vs. control [6, 24]: −10.3%
- % cell viability reduction vs. control [6, 25]: −20.6%
- cell viability, change vs. control (signed, negative = reduced) [6]: −13%
- Ki [7]: 1000 nM

Structure (SMILES): C[C@@H](O)[C@H](NC(=O)[C@H](Cc1ccccc1)NC(=O)[C@@H](NC(=O)[C@H](CCCCN)NC(=O)[C@@H](Cc1c[nH]c2ccccc12)NC(=O)[C@H](Cc1c[nH]c2ccccc12)NC(=O)[C@H](Cc1ccccc1)NC(=O)[C@H](N)Cc1ccccc1)[C@@H](C)O)C(N)=O [Cmpd #3, D-Phe-Phe-Trp-D-Trp-Lys-Thr-Phe-Thr-NH2]
- Ki [1]: 166 nM
- Ki [2]: 1150 nM
- Ki [3]: 1000 nM
- % CT secretion inhibition vs. control [4, 8]: −16.6%
- % CT secretion inhibition vs. control [4, 9]: 18.2%
- % CT secretion inhibition vs. control [4, 10]: −36.5%
- % CT secretion inhibition vs. control [4, 11]: 5.3%
- % CT secretion inhibition vs. control [4, 12]: −17.5%
- % CT secretion inhibition vs. control [4, 13]: −25.8%
- % CT secretion inhibition vs. control [4, 14]: −34.6%
- % CT secretion inhibition vs. control [4, 15]: −7.5%
- % CT secretion inhibition vs. control [4, 16]: −1.6%
- % CT secretion inhibition vs. control [4, 17]: 15.6%
- % CT secretion inhibition vs. control [4, 18]: −76.2%
- % CT secretion inhibition vs. control [4, 19]: −9.3%
- % CT secretion inhibition vs. control [4, 20]: −43.2%
- % CT secretion inhibition vs. control [4, 21]: 9.5%
- % CT secretion inhibition vs. control [4, 22]: 7.8%
- % CT secretion inhibition vs. control [4, 23]: −17.4%
- % CT secretion inhibition vs. control [4, 24]: 7.4%
- % CT secretion inhibition vs. control [4, 25]: 13.6%
- calcitonin secretion reduced / inhibited by ([4]; group A (lanreotide responders) mean): 28%
- calcitonin secretion, change vs. control (signed, negative = reduced) [4, 26]: −28%
- calcitonin secretion, change vs. control (signed, negative = reduced) [4, 27]: not reduced
- Ki [5]: 2.4 nM
- % cell viability reduction vs. control [6, 8]: 30.8%
- % cell viability reduction vs. control [6, 9]: −72.5%
- % cell viability reduction vs. control [6, 10]: 0.4%
- % cell viability reduction vs. control [6, 11]: 4.8%
- % cell viability reduction vs. control [6, 12]: −5.3%
- % cell viability reduction vs. control [6, 13]: 2.4%
- % cell viability reduction vs. control [6, 14]: 4.2%
- % cell viability reduction vs. control [6, 15]: −0.3%
- % cell viability reduction vs. control [6, 16]: 3.6%
- % cell viability reduction vs. control [6, 17]: 2.3%
- % cell viability reduction vs. control [6, 18]: −1.0%
- % cell viability reduction vs. control [6, 19]: −11.3%
- % cell viability reduction vs. control [6, 20]: 7.2%
- % cell viability reduction vs. control [6, 21]: 6.0%
- % cell viability reduction vs. control [6, 22]: 5.2%
- % cell viability reduction vs. control [6, 23]: −5.8%
- % cell viability reduction vs. control [6, 24]: −8.7%
- % cell viability reduction vs. control [6, 25]: −3.8%
- cell viability, change vs. control (signed, negative = reduced) [6]: neither affected

Structure (SMILES): CCCN1C[C@H](CSCC(=O)NCCCC[C@@H](NC(=O)CSC[C@@H]2C[C@@H]3c4cccc5[nH]cc(c45)C[C@H]3N(CCC)C2)C(=O)N[C@H]2CSSC[C@@H](C(=O)N[C@H](C(N)=O)[C@@H](C)O)NC(=O)[C@H](CC)NC(=O)[C@H](CCCCN)NC(=O)[C@@H](Cc3c[nH]c4ccccc34)NC(=O)[C@H](Cc3ccc(O)cc3)NC2=O)C[C@@H]2c3cccc4[nH]cc(c34)C[C@H]21 [Dop2-D-Lys(Dop2)-c[Cys-Tyr-D-Trp-Lys-Abu-Cys]-Thr-NH2]
- Ki [5]: 41.5 nM
